Measurements reported in article PMC7997411, “Discovery and Optimization of Selective Inhibitors of Meprin α (Part II)” (Pharmaceuticals, 2021).
Where “and” joins values, the source holds several entries; their conditions need not be identical. Equal entries are not always repeated. Where two headings read alike, the source gives them in different places.

Columns and labels:
Type in all cases: biochemical
[1] = target: T1, meprin α (Homo sapiens, UniProt Q16819); assay: Meprin α assay in a 384-well plate (fluorogenic substrate Mca-YVADAPK-K(Dnp))
T1 construct: Strep-tag; made in house; host or cells: BTI-TN-5B1-4 insect cells (baculovirus, amplified in Sf9)
T1 sequence (Q16819 66-746): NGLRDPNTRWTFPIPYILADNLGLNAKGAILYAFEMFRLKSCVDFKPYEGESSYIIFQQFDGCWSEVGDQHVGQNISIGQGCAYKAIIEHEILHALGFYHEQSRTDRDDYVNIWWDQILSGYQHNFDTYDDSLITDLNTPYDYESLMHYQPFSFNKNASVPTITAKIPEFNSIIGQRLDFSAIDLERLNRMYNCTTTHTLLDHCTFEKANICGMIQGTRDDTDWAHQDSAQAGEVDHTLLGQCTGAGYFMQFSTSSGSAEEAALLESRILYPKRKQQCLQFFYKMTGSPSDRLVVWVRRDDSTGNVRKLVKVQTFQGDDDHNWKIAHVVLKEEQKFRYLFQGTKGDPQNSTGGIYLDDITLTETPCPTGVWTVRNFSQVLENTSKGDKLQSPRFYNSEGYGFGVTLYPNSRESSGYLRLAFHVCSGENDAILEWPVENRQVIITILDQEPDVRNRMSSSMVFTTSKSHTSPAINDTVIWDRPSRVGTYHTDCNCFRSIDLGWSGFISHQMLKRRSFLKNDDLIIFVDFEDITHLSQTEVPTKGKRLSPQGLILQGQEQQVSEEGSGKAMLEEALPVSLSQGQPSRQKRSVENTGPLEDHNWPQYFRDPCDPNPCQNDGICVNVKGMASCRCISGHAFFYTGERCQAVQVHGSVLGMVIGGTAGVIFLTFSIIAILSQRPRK
Protocol: Recombinant human meprin α and meprin β were expressed using the Bac-to-Bac expression system (Gibco Life Technologies, Paisley, UK) as described before. Media and supplements were obtained from Gibco Life Technologies. Recombinant Baculoviruses were amplified in adherently growing Spodoptera frugiperda (Sf)9 insect cells at 27 °C in Grace’s insect medium supplemented with 10% fetal bovine serum, 50 units/mL penicillin, and 50 μg/mL streptomycin. Protein expression was performed in 500 mL suspension cultures of BTI-TN-5B1-4 insect cells growing in Express Five SFM supplemented with 4 mM glutamine, 50 units/mL penicillin, and 50 μg/mL streptomycin in Fernbach-flasks using a Multitron orbital shaker (INFORS AG, Bottmingen, Switzerland). Cells were infected at a density of 2 × 10^6 cells/mL with an amplified viral stock at a MOI of ~10. […] Meprins were activated by trypsin, which was removed afterwards by affinity chromatography using a column containing immobilized chicken ovomucoid, a trypsin inhibitor.
Both assays followed the same general protocol. […] After 30 min incubation at RT, the reactions were started by addition of 5 µL of 2× solutions of substrates (20 µM, meprin α Mca-YVADAPK-K(Dnp), and for meprin β Mca-EDEDED-K(Dnp)).

[2] = target: T2, MMP13 (Homo sapiens, UniProt P45452); assay: MMP assay (fluorogenic substrate ES010)
T2 construct: purchased R&D Systems 511-MM
Protocol: (§1) MMP-1, MMP-2, MMP-8, MMP-9, MMP-10, MMP-13, MMP-14, ADAM10, ADAM17 and Mca-KPLGL-Dpa-AR-NH2 fluorogenic peptide substrate were purchased from R&D Systems (cat # 901-MP, 902-MP, 908-MP, 911-MP, 910-MP, 511-MM, 918-MP, 936-AD, 930-ADB, and ES010, respectively). All common chemicals were purchased from Sigma. NFF449 was purchased from Tocris (cat# 1391) and actinonin was from Sigma-Aldrich, St. Louis, MO, USA (cat# 01809).
(§2) All assays followed the same general protocol. 5 µL of 2× enzyme solution (5 nM) in assay buffer (50 mM Tricine, 50 mM NaCl, 10 mM CaCl2, 0.05% Brij-35, pH 7.5) were added to solid-bottom black 384 plates (Nunc, cat# 264705). Next, test compounds and pharmacological controls were added to corresponding wells using a 384-pin tool device (V&P Scientific, San Diego). After 30 min incubation at RT, the reactions were started by addition of 5 µL of 2× solutions of MMP substrate (R&D Systems cat#: ES010, 20 µM). Reactions were incubated at RT for 1 h, after which the fluorescence was measured using the Synergy H4 multimode microplate reader (Biotek Instruments) (λexcitation = 324 nm, λemission = 390 nm). All compounds were tested in 10-point, 1:3 serial dilutions dose-response format starting with highest concentration of 100 µM. IC50 values were determined using non-linear regression analysis using the GraphPad Prism 8.0 suite of programs.

[3] = target: T3, MMP14 (Homo sapiens, UniProt P50281); assay: MMP assay (fluorogenic substrate ES010)
T3 construct: purchased R&D Systems 918-MP
Protocol: as §1, §2

[4] = target: T4, MMP2 (Homo sapiens, UniProt P08253); assay: MMP assay (fluorogenic substrate ES010)
T4 construct: purchased R&D Systems 902-MP
T4 sequence (P08253 110-660): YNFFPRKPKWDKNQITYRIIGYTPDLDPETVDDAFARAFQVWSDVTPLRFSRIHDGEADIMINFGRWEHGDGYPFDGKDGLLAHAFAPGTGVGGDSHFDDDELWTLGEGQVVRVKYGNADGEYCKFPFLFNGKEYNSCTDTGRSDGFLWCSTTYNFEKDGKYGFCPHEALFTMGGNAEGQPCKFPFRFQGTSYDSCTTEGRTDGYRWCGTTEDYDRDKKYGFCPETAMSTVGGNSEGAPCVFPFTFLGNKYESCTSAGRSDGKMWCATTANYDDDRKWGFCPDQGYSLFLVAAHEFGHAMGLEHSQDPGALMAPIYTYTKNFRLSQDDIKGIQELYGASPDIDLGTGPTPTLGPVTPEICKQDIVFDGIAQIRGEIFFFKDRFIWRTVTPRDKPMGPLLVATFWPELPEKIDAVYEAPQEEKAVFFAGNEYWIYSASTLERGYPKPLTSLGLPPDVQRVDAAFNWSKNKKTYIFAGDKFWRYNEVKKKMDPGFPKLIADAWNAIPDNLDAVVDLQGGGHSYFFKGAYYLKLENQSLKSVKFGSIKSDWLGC
Protocol: as §1, §2

[5] = target: T5, MMP8 (Homo sapiens, UniProt P22894); assay: MMP assay (fluorogenic substrate ES010)
T5 construct: purchased R&D Systems 908-MP
Protocol: as §1, §2

[6] = target: T6, MMP9 (Homo sapiens, UniProt P14780); assay: MMP assay (fluorogenic substrate ES010)
T6 construct: purchased R&D Systems 911-MP
Protocol: as §1, §2

T5 sequence (P22894 101-467): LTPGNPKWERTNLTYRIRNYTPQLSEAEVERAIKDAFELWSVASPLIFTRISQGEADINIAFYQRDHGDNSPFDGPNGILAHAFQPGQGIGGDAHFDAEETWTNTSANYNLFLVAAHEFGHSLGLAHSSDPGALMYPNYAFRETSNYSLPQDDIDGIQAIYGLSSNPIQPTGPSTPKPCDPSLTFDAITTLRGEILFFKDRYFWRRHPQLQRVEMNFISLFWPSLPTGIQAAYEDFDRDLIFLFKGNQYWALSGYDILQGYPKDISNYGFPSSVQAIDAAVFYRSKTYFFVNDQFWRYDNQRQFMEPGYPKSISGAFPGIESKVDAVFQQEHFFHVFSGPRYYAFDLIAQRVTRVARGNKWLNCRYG
T6 sequence (P14780 94-707): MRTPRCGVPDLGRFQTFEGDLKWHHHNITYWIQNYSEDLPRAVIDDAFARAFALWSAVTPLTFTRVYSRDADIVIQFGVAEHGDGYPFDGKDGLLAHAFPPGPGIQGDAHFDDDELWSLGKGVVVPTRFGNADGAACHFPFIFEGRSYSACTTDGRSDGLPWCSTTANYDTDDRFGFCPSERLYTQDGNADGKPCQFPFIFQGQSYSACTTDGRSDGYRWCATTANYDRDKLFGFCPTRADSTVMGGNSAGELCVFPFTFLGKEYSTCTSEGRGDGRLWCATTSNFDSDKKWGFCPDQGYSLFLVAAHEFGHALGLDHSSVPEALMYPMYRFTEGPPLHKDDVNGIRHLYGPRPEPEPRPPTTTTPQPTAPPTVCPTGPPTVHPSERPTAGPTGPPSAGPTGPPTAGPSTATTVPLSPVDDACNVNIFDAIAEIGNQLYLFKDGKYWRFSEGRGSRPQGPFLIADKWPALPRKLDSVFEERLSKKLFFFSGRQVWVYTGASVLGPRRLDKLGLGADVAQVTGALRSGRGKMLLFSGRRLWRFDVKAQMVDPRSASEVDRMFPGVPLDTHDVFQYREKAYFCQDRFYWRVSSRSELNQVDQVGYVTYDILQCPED

| SMILES | IC50 ([1]; triplicate, ± SD) [µM] | IC50 [2] [µM] | IC50 [3] [µM] | IC50 [4] [µM] | IC50 [5] [µM] | IC50 [6] [µM] | IC50 [1] [µM] | fold more potent than the HTS hit SR19855 in binding meprin α [1] | meprin α/β fold selectivity (ratio of IC50 values) ([1]; meprin α over meprin β) | extent of meprin α inhibition (in words) ([1]; scale-up batch, higher doses tested, Figure 4A) |
| --- | --- | --- | --- | --- | --- | --- | --- | --- | --- | --- |
| CCCCC[C@H](CC(=O)NO)C(=O)N[C@H](C(=O)N1CCC[C@H]1CO)C(C)C [Actinonin, actinonin, reference compound] | 0.004 | 0.1 | > 1000 | 0.09 | 0.19 | 0.1 ± 0.01 |  |  |  |  |
| COc1cc(OC)nc(SCc2nnc(SCC(=O)NO)n2-c2ccc(N(C)C)cc2)n1 [SR24717] | 0.66 ± 0.03 | > 100 | > 100 | > 100 | > 100 | > 100 | 0.49 to 0.67 | ~ 2 fold | > 100 fold and 106 fold and ~ 106 fold | full meprin α inhibition |
